For nine compounds, GI50 and TGI results are on record in PubChem BioAssay (NCI).

Structures are written as SMILES.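 Method: 48-hour compound exposure of cells in 96-well plates, five concentrations, linear interpolation of endpoints. Abbreviation: GI50, concentration required for 50% inhibition of growth. At the TGI there is no net growth.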

Test systems include EKVX NSCLC; COLO 205 colon; IGROV1 ovarian; K-562 leukemia; HL-60(TB) leukemia; NCI-H23 lung; HS 578T breast; SK-MEL-5 melanoma.
Common to all, as to assay: inhibition of tumour cell growth, NCI panel, 48 h

Take `Cc1ccc(-c2cc(O)c(-c3ccc(C)cc3C)cc2O)c(C)c1`: the GI50 in the experiment with EKVX NSCLC is 5.45 µM; in the experiment with COLO 205 colon it was 10.2 µM; with IGROV1 ovarian, 8.25 µM; with K-562 leukemia, 5.1 µM; in the experiment with HL-60(TB) leukemia, 10.3 µM; with NCI-H23 lung it was 7.43 µM. Further, the values for the GI50 with HS 578T breast and in the experiment on SK-MEL-5 melanoma were 12.7 µM and 1.11 µM, respectively. For the same compound, the TGI is 37.3 µM in the experiment with EKVX NSCLC; 24.6 µM with COLO 205 colon; 39 µM with IGROV1 ovarian; > 100 µM in the experiment on K-562 leukemia; > 100 µM in the experiment on HL-60(TB) leukemia; 26.2 µM in the experiment with NCI-H23 lung. For the same compound, the TGI in the experiment with HS 578T breast worked out at 61.9 µM; with SK-MEL-5 melanoma, 10.2 µM.

For the compound `COc1cc(NC(=O)C2=C(N3CCOCC3)/C(=C/c3ccc(Cl)cc3)CC2)cc(OC)c1OC`, the GI50 in the experiment on EKVX NSCLC was 24.9 µM; in the experiment with COLO 205 colon, > 100 µM; with IGROV1 ovarian, 21.3 µM; in the experiment with K-562 leukemia it was > 100 µM; with HL-60(TB) leukemia, > 100 µM; in the experiment with NCI-H23 lung, 48.8 µM. Further, the GI50 was 3.97 µM with HS 578T breast and > 100 µM in the experiment with SK-MEL-5 melanoma. For the same compound, the TGI with EKVX NSCLC, with COLO 205 colon, in the experiment with IGROV1 ovarian, in the experiment with K-562 leukemia, in the experiment with HL-60(TB) leukemia and with NCI-H23 lung was > 100 µM each time. For the same compound, the TGI is 40.7 µM in the experiment with HS 578T breast and > 100 µM with SK-MEL-5 melanoma.

`O=C1OCC2=C1C(c1ccccc1)c1cc3c(cc1N2CCO)OCCO3` (stereo unspecified): the GI50 in the experiment with EKVX NSCLC was 0.962 µM; in the experiment with COLO 205 colon, 0.24 µM; in the experiment with IGROV1 ovarian, 0.161 µM; with K-562 leukemia it was 0.191 µM; with HL-60(TB) leukemia, 0.118 µM; with NCI-H23 lung, 0.448 µM. The GI50 is 0.206 µM with HS 578T breast and 0.181 µM with SK-MEL-5 melanoma. The TGI with EKVX NSCLC is > 50 µM; with COLO 205 colon it was 0.978 µM; in the experiment with IGROV1 ovarian it was 1.41 µM; in the experiment with K-562 leukemia, > 50 µM; in the experiment with HL-60(TB) leukemia, 0.406 µM; with NCI-H23 lung, > 50 µM. Further, the TGI in the experiment on HS 578T breast was determined as 10.8 µM; in the experiment with SK-MEL-5 melanoma it was 7.18 µM.

With `Cc1ccc(Sc2cc3c(oc2=O)-c2ccccc2OC3O)cc1` (stereo unspecified), the GI50 in the experiment on EKVX NSCLC was 21.9 µM; in the experiment with COLO 205 colon, 15 µM; with IGROV1 ovarian, 22.4 µM; in the experiment on K-562 leukemia, 27.7 µM; in the experiment on HL-60(TB) leukemia it was 16.6 µM; with NCI-H23 lung, 27.7 µM. Also, the values for the GI50 in the experiment with HS 578T breast and in the experiment on SK-MEL-5 melanoma were 26.1 µM and 17.1 µM, respectively. The TGI in the experiment on EKVX NSCLC was 43.9 µM; in the experiment with COLO 205 colon, 36.5 µM; in the experiment on IGROV1 ovarian, 49.2 µM; in the experiment on K-562 leukemia, > 100 µM; with HL-60(TB) leukemia, 37.1 µM; with NCI-H23 lung, 55.3 µM. The results for the TGI in the experiment on HS 578T breast and in the experiment on SK-MEL-5 melanoma were 61.7 µM and 32.9 µM, respectively.

In the case of `O=C(/C=C\c1ccccc1)N1CCc2ccccc2C1`, the TGI was > 100 µM in the experiment on EKVX NSCLC; 57.1 µM in the experiment with COLO 205 colon; > 100 µM with IGROV1 ovarian; 45.8 µM with K-562 leukemia; 83.6 µM in the experiment with HL-60(TB) leukemia; 51.9 µM in the experiment on NCI-H23 lung. In addition, the TGI is > 100 µM in the experiment on HS 578T breast and 39.9 µM with SK-MEL-5 melanoma.

Take `CS(=O)(=O)N(c1cc(-c2ccc3ncnc(Nc4cccc(Cl)c4)c3c2)cnc1Cl)S(C)(=O)=O`: the GI50 was 0.357 µM in the experiment on EKVX NSCLC; 0.421 µM in the experiment on COLO 205 colon; 0.0951 µM in the experiment on IGROV1 ovarian; 1.23 µM in the experiment on K-562 leukemia; 0.284 µM in the experiment with HL-60(TB) leukemia; 0.417 µM in the experiment with NCI-H23 lung. Besides, the GI50 in the experiment with HS 578T breast was 0.236 µM; with SK-MEL-5 melanoma, 0.306 µM. Moreover, the TGI came out at 2.25 µM in the experiment with EKVX NSCLC; 2.04 µM with COLO 205 colon; 0.528 µM in the experiment on IGROV1 ovarian; 45.1 µM with K-562 leukemia; 6.48 µM in the experiment on HL-60(TB) leukemia; 3.72 µM in the experiment on NCI-H23 lung. Further, the figures for the TGI in the experiment on HS 578T breast and in the experiment with SK-MEL-5 melanoma were 6.08 µM and 1.41 µM, respectively.

As for `CCN(CC)c1ccc(/C=C/C=C2\NC(=O)NC2=O)cc1`, the GI50 in the experiment on EKVX NSCLC was 3.77 µM; in the experiment with COLO 205 colon it was 3.22 µM; with IGROV1 ovarian, 3.57 µM; in the experiment on K-562 leukemia it was 3.7 µM; with HL-60(TB) leukemia it was 3.06 µM; in the experiment on NCI-H23 lung it was 11.2 µM. Further, the results for the GI50 in the experiment on HS 578T breast and in the experiment with SK-MEL-5 melanoma were 3.91 µM and 1.17 µM, respectively. Moreover, the TGI in the experiment with EKVX NSCLC is > 100 µM; in the experiment on COLO 205 colon it was 16.2 µM; in the experiment on IGROV1 ovarian, > 100 µM; with K-562 leukemia, > 100 µM; with HL-60(TB) leukemia, > 100 µM; in the experiment with NCI-H23 lung it was > 100 µM. In addition, the figures for the TGI in the experiment with HS 578T breast and in the experiment with SK-MEL-5 melanoma were 42.6 µM and 13.7 µM, respectively.

`CCCCCCCCCCCCCCCC1=NC(C)(C)CN1C(C)C`: the GI50 in the experiment on EKVX NSCLC was 1.74 µM; in the experiment with COLO 205 colon, 1.5 µM; with IGROV1 ovarian it was 1.12 µM; in the experiment with K-562 leukemia it was 0.448 µM; in the experiment with HL-60(TB) leukemia, 0.91 µM; in the experiment on NCI-H23 lung, 1.49 µM. For the same compound, the GI50 in the experiment with HS 578T breast is 1.62 µM; in the experiment on SK-MEL-5 melanoma it was 1.68 µM. The TGI came to 4.24 µM in the experiment with EKVX NSCLC; 2.83 µM with COLO 205 colon; 2.41 µM in the experiment with IGROV1 ovarian; 1.72 µM in the experiment on K-562 leukemia; 2.4 µM in the experiment on HL-60(TB) leukemia; 2.81 µM in the experiment on NCI-H23 lung. The TGI in the experiment on HS 578T breast stood at 3.87 µM; in the experiment with SK-MEL-5 melanoma it was 3.04 µM.

`O=c1oc2c(C(F)(F)F)cccc2cc1-c1csc(Nc2ccc(OCCF)cc2)n1`: the GI50 in the experiment on EKVX NSCLC was 0.0556 µM; in the experiment on COLO 205 colon it was 0.0268 µM; in the experiment on IGROV1 ovarian, 0.0757 µM; in the experiment with K-562 leukemia, 0.0348 µM; in the experiment on HL-60(TB) leukemia it was 0.0248 µM; with NCI-H23 lung, 0.0544 µM. For the same compound, the GI50 is 0.051 µM in the experiment on HS 578T breast and 0.0658 µM in the experiment with SK-MEL-5 melanoma. For the same compound, the TGI in the experiment with EKVX NSCLC was > 100 µM; in the experiment on COLO 205 colon, 0.0729 µM; with IGROV1 ovarian it was > 37 µM; in the experiment with K-562 leukemia, > 100 µM; with HL-60(TB) leukemia, 0.0573 µM; with NCI-H23 lung it was 23.4 µM. Further, the values for the TGI with HS 578T breast and in the experiment with SK-MEL-5 melanoma were > 69.4 µM and 0.497 µM, respectively.
